{"source": "paper PMC8686256", "about": "“DZNep promotes mouse bone defect healing via enhancing both osteogenesis and osteoclastogenesis” (Stem Cell Research & Therapy, 2021)", "key": {"[1]": {"system": "BMMs", "experiment": "Immunofluorescence of podosome actin belt", "type": "cell-based, mouse", "settings": "25 nM, vs control", "experimental": "BMMs in complete α-MEM with or without 25 nM DZNep were seeded in 6-well plates at a density of 1 × 10^5 cells/well and cultured for 6 days. Once the matured osteoclast could be observed, the plate was washed by PBS and then fixed with 4% paraformaldehyde. The 10 min 0.2% Triton X-PBS was then performed for permeabilizing. After three times washing by PBS, FITC-labeled phalloidin was added for 1 h in darkness to bounds with the cells F-actin ring. The nuclei were stained at RT for 5 min without light by 4′, 6-diamidino-2-phenylindole (DAPI). After the final PBS wash, the perimeter of the actin ring could be observed by the fluorescence microscope (Leica) and analyzed using ImageJ software (NIH, Bethesda, MD, USA)."}, "[2]": {"system": "primary BMSC", "experiment": "CCK-8 cytotoxicity on BMSC", "type": "cell-based, mouse", "settings": "100 nM; 12, 48, and 96 h"}, "[3]": {"system": "primary BMSC", "experiment": "Osteoblast differentiation and mineralization, ALP and Alizarin red staining", "type": "cell-based, mouse", "experimental": "Primary BMSC were obtained from the whole bone marrow of male 4-week-old C57BL/6 mice. In brief, cells were extracted from the tibiae and femurs bone marrow and suspended in α-MEM supple with 10% FBS, and 1% penicillin/streptomycin. Then, the cell cultures were kept in a humid environment at 37 °C with 5% CO2 until they reached 90% confluence. For further identifying the effect of DZNep on osteogenesis, bone marrow-derived mouse mesenchymal stem cells were firstly seeded into the 48-well plates for one day at a density of 5 × 10^4 cells/well. Then the medium was changed by low-glucose DMEM with 15% FBS, 5 mM β-glycerophosphate, 50 µg/mL ascorbic acid, 10-7 mM dexamethasone, and various concentrations of DZNep (0, 12.5, 25, 50, and 100 nM). The medium was changed twice a week. For EZH2 gene knockdown studies, the cells were transfected with virus constructed of different EZH2 short hairpin RNA (shRNA) and negative control shRNA by mixed with polybrene (final concentration of 10ug/ml) for 48 h. The transfection mixture was then replaced by complete α-MEM added with puromycin for 24 h, and BMSCs were then seeded into a 48-well plate at the density of 5 × 10^4 cells/well with complete α-MEM for 24 h. The culture medium was then replaced by low-glucose DMEM with 15% FBS, 5 mM β-glycerophosphate, 50 µg/mL ascorbic acid, 10-7 mM dexamethasone. The medium was changed twice a week. […]"}, "[4]": {"system": "bone defect mice", "experiment": "Tibia cortical and trabecular bone defect mice model", "type": "in vivo, mouse", "description": "The tibia cortical and trabecular bone defect mice model was established to determine the bone healing effect of DZNep in vivo. Firstly, all mice (twelve 8-week-old C57/BL6 male mice (approximate weight 20 ± 2 g)) were anesthetized by 2% isoflurane, the right tibia was exposed, and muscles were dissociated. Then a pilot hole was first made with a burr drill point in the proximal tibia, but away from the growth plate to some extent. Then the hole was enlarged with a 1 mm […]. Afterward, the mice were average divided into two groups: (1) DZNep group (injection with 100 μg/kg DZNep); (2) Sham group (injection with 1 × PBS). Two days after operation, 1 × PBS for sham group and DZNep for treatment group were intraperitoneally injected every two days during next two week. All mice were finally euthanized after experiment, and whole tibia bones were separated. After fixed in 4% paraformaldehyde for 24 h, the 75% ethanol was then used to soak the specimens for further histological and radiographic analysis. High-resolution micro-CT (μCT-100, SCANCO Medical AG, Switzerland) was used to perform the micro-computed tomography (CT) scanning. […] For analysis bone mass of defect section, a region of defect section trabecular bone was contoured, starting from the first defect section level away from proximal end of the […] growth plate. Femoral trabecular bone was thresholded at 211 per mille. The indicators of bone microstructure (bone volume/tissue volume (BV/TV), trabecular thickness (Tb.Th), trabecula number (Tb.N), trabecula separation (Tb.Sp), and bone surface/ bone volume (BS/BV)) were measured by software (Version: 6.5-3, SCANCO Medical AG, Switzerland) through evaluating and analyzing the three-dimensional region of interest (ROI). After fixing in 4% paraformaldehyde for 48 h, the 10% EDTA was used to decalcify the fixed tibias for 21 days. Then the tissues were processed by dehydrating in different concentrations of ethanol, infiltrating with xylene, and embedding with paraffin. Hematoxylin and eosin (H&E) and TRAP staining were then performed on these prepared histological sections. As for immunofluorescent staining, slices were processed in a sequence of deparaffinization, hydration, antigen retrieval, permeabilization, blocking, primary antibody incubation (OCN, USA, Affinity; dilution 1:100), secondary antibody incubation, and nuclear staining finally. Immunohistochemical (IHC) staining was accomplished with antibodies against OCN (USA, Affinity; dilution 1:100). The specimens were observed and photographed under the high-quality microscope (Leica DM4000B). Each sample's number of osteoclasts and TRAP-positive multinucleated osteoclasts per field (Oc.S/BS) were calculated."}, "[5]": {"settings": "100 μg/kg i.p. every two days, two weeks"}}, "data": [{"molecule": "Nc1nccc2c1ncn2C1C=C(CO)C(O)C1O", "note": "(stereo not shown) [DZNep, 3-Deazaneplanocin]", "values": [{"measurement": "podosome actin belt formation of osteoclast", "setting": "[1]", "result": "promoted the podosome actin belt formation"}, {"measurement": "cytotoxicity on primary BMSC", "setting": "[2]", "result": "no cytotoxicity was found"}, {"measurement": "osteoblast differentiation (ALP staining)", "setting": "[3]; 7 days, especially 50 nM", "result": "promoted"}, {"measurement": "osteoblast mineralization (Alizarin red staining)", "setting": "[3]; 28 days", "result": "enhanced in a dose-dependent manner"}, {"measurement": "osteocalcin (OCN) expression in vivo", "setting": "[4]; 100 μg/kg i.p.", "result": "increased"}, {"measurement": "BV/TV (micro-CT)", "setting": "[4]; [5]", "result": "prominently increased"}, {"measurement": "trabecular thickness (Tb.th) (micro-CT)", "setting": "[4]; [5]", "result": "prominently increased"}, {"measurement": "bone mineral density (X-ray)", "setting": "[4]; 100 μg/kg i.p. every two days, two weeks, vs control", "result": "more bone mineral density"}, {"measurement": "bone repair (H&E-stained sections)", "setting": "[4]; 100 μg/kg i.p., vs control", "result": "more significant bone repair"}, {"measurement": "number of TRAP-positive multinucleated osteoclasts in vivo", "setting": "[4]; 100 μg/kg i.p., vs vehicle-treated group", "result": "more number of TRAP-positive multinucleated osteoclasts"}]}]}
